These results are taken from PMC9315260, “Diarylamine-Guided Carboxamide Derivatives: Synthesis, Biological Evaluation, and Potential Mechanism of Action” (Frontiers in Chemistry, 2022).

Entries after “also recorded” stand apart in the source; their conditions may differ.

One may read the inhibition as the relative decrease from the control value, in per cent. The IC50 is the concentration that gives 50% inhibition. Usually melting point stands for the temperature, or range, at which the solid turns liquid.

Series [1] relates to MARC145 (subclone of African green monkey kidney cell line MA-104). Briefly: MTT in vitro cytotoxicity assay, MARC145. The format is cell-based. Particulars: Chlorocebus sabaeus, MARC145; at 100 µM; read-out: Cell growth inhibition (%) MARC145. The method, then: (§1) The lead molecules A2 and all newly prepared diarylamine derivatives B1-13 and C1-11 were evaluated for their in vitro cytotoxic effects against SGC-7901, A875, HepG2 and MARC145 cell lines by the classical MTT [3-(4,5-dimethylthiazol-2-yl)-2,5-diphenyl tetrazolium bromide] assay ([Alley et al., 1988]; [Ke et al., 2012]; [Shi et al., 2012]; [Yu et al., 2015]; [Ke et al., 2019]; [Xu et al., 2019]; [Huang et al., 2021]) using 5-FU (5-Fluorouracil) as a control.
(§2) The cytotoxicity of target compounds was determined with MTT assay ([Alley et al., 1988]; [Ke et al., 2012]; [Shi et al., 2012]; [Yu et al., 2015]; [Ke et al., 2019]; [Xu et al., 2019]; [Huang et al., 2021]). SGC-7901, A875, HepG2 and MARC145 cell lines were obtained from Hubei Biopesticide Engineering Research Centre. All data of the experiment were analyzed with SPSS software, and all assay were performed in triplicate on three independent experiments, and measurement data were expressed as the mean ± S.D.
(§3) The in vitro cytotoxicity of the synthesized compounds against different cell lines (SGC-7901, A875, HepG2 and MARC145) was measured with MTT assay. All the data of the experiment were analyzed with SPSS software, and the 50% inhibitory concentrations (IC50) of each compound for the different cell lines were determined. A control was run for each test, and all assays were performed in triplicate on three independent experiments, and measurement data were expressed as the mean ± S.D.

Series [2] can be described thus: MTT in vitro cytotoxicity assay, MARC145. The series is classed as cell-based, African green monkey. The settings on record: African green monkey, MARC145 cells (kidney cell line, subclone of MA-104), MTT, mean ± S.D. As to the method:
as §1, §2, §3

The subject of series [3] is HepG2 (human hepatocellular liver carcinoma cell line). Briefly: MTT in vitro cytotoxicity assay, HepG2. The series is classed as cell-based. Particulars: for IC50: mean ± S.D.; for inhibition at 100 µM: HepG2, at 100 µM, read-out: Cell growth inhibition (%) HepG2. As to the method:
as §1, §2, §3

The subject of a further series is A875 cells. Briefly: LDH release (cellular necrosis). The series is classed as cell-based, human. Particulars: 24 h after treatment. The method, then: From the preliminary analysis of apoptosis, the results encourage us to further investigate the type of cell death induced by the potential compounds (C6 and C11). As we know, the release of LDH is a typical characteristic feature of necrotic cell death, and so which was detected.
A875 cells grown in 96-well plates were treated with serial dilutions of each tested compound for 24 h. The culture media were collected, and the concentrations of LDH were determined based on our previous research ([Huang et al., 2021]).
A875 cells grown in 96-well plates were treated with serial dilutions of each tested compound for 24 h. The culture media were collected, and the concentrations of LDH were determined with an LDH assay kit according to the manufacturer’s instructions (Abcam).
Background: LDH in the medium is a marker of cell lysis.

Series [4] concerns SGC-7901, A875, HepG2 and MARC145 cell lines. Briefly: MTT in vitro cytotoxicity assay, statements over the whole cell panel. The format is cell-based. The settings on record: for cytotoxic effect / inhibition activity in words: IC50-based judgement, compared with 5-FU; for inhibition activity in preliminary screening, in words: at 100 µM, inhibition rate higher than control 5-FU. As to the method: as §1, §2, §3

Series [5] deals with A875 (human melanoma cell line). As to the kind of experiment: MTT in vitro cytotoxicity assay, A875. The series is classed as cell-based. The settings on record: for IC50: mean ± S.D.; for inhibition at 100 µM: A875, at 100 µM, read-out: Cell growth inhibition (%) A875. As to the method: as §1, §2, §3
Series [6] has as its system SGC-7901 (human gastric cancer cell line). Briefly: MTT in vitro cytotoxicity assay, SGC-7901. The series is classed as cell-based. Particulars: for IC50: mean ± S.D.; for inhibition at 100 µM: SGC-7901, at 100 µM, read-out: Cell growth inhibition (%) SGC-7901. The method, then: as §1, §2, §3
Another series deals with NCI-H460. On the set-up: method as in Peng et al., 2017. Particulars: ref Peng et al., 2017; cited from earlier work.
A further series relates to A549. On the set-up: method as in Peng et al., 2017. Particulars: ref Peng et al., 2017; cited from earlier work.
For the next series, the system named is HL-7702. On the set-up: method as in Peng et al., 2017. The settings on record: ref Peng et al., 2017; cited from earlier work.
Another series relates to MDCK. On the set-up: method as in Peng et al., 2017. Particulars: ref Peng et al., 2017; cited from earlier work.
In the next series the test system is NCI-H1975. Details: method as in Peng et al., 2017. Particulars: ref Peng et al., 2017; cited from earlier work.
Series [7] concerns lung cancer cell lines (NCI-H460, A549, and NCI-H1975). Details: method as in Peng et al., 2017. Particulars: ref Peng et al., 2017, read-out: IC50 values against the tested lung cancer cell lines; cited from earlier work.

Consider `O=c1[nH]cc(F)c(=O)[nH]1` [5-FU, 5-Fluorouracil, reference compound], for which the inhibition at 100 µM in series [1] is 60.3 ± 3.9%; in [3], 59 ± 3.5%; in [5], 53.2 ± 4.5%; in [6], 56.8 ± 2.2%. Further, the IC50 was 153 ± 11 µM in series [2] (Table 1); 99 ± 16.4 µM in series [2] (Table 3); 88.1 ± 17.2 µM in series [3] (HepG2, Table 1, MTT); 91.8 ± 16.1 µM in series [3] (HepG2, Table 3, MTT); 82.4 ± 23.7 µM in [5] (A875, Table 1, MTT); 101 ± 7.14 µM in series [5] (A875, Table 3, MTT). Further, the IC50 was 71.1 ± 2.65 µM in [6] (SGC-7901, Table 1, MTT) and 87.7 ± 11 µM in series [6] (SGC-7901, Table 3, MTT). In addition, in the series with A875 cells, the “release of LDH, in words” value was “significantly increased”. Besides, the “dose-response analysis of cell growth inhibition, in words” value in series [4] (SGC-7901, A875, HepG2, MARC145) is listed as “significant concentration dependence”.
Regarding `Cc1cc(Cl)cc(C(N)=O)c1NC(=O)c1ccccc1Nc1cccc(C(F)(F)F)c1` [A1], the IC50 in the series on NCI-H460 is greater than 80 µM; in series [2] (Table 1), greater than 89 µM; in series [3] (HepG2, Table 1, MTT) it was greater than 89 µM; in the series with A549, greater than 80 µM; in [5] (A875, Table 1, MTT), 56.9 ± 7.54 µM; with HL-7702, greater than 80 µM. Further, the IC50 was 52.8 ± 6.59 µM in series [6] (SGC-7901, Table 1, MTT); greater than 80 µM in the series on MDCK; greater than 80 µM in the series with NCI-H1975; greater than 80 µM in [7].
Regarding `CNC(=O)c1cc(Cl)cc(C)c1NC(=O)c1ccccc1Nc1cccc(C(F)(F)F)c1` [A2], the IC50 in the series on NCI-H460 was 14.8 ± 0.49 µM; in series [2] (Table 1) it was 8.13 ± 2.49 µM; in series [3] (HepG2, Table 1, MTT), 12.4 ± 0.39 µM; with A549 it was 14.7 ± 1.86 µM; in [4] (SGC-7901, A875, HepG2, MARC145, read-out: IC50 values, span over the tested cell lines) it was 7.59 to 12.4 µM; in series [5] (A875, Table 1, MTT), 7.59 ± 1.82 µM. The IC50 with HL-7702 is 46.4 ± 3.87 µM; in series [6] (SGC-7901, Table 1, MTT) it was 8.5 ± 2.26 µM; in the series with MDCK it was 46 ± 7.77 µM; in the series on NCI-H1975, 23.4 ± 2.21 µM.
`O=C(Nc1cccc(C(F)(F)F)c1)c1ccccc1Nc1cccc(C(F)(F)F)c1` [C5, N-(3-(Trifluoromethyl)phenyl)-2-((3-(trifluoromethyl)phenyl)amino)benzamide] showed a melting point of 75 to 76 °C. Further, the inhibition at 100 µM in series [1] amounted to 92.3 ± 4.1%. The compound also registered an IC50 in series [2] (Table 3) of 9.57 ± 2.15 µM. Also, in series [3] (HepG2, Table 3, MTT), inhibition was half-maximal at 10.1 ± 0.8 µM (IC50). Also, in series [3], the inhibition at 100 µM is 88.9 ± 1.9%. Also, in series [4], the “cytotoxic effect / inhibition activity in words” value was “good cytotoxic effect; also recorded: higher inhibition activities compared to the control 5-FU” and the “inhibition activity in preliminary screening, in words” value is recorded as “good inhibition activity”. The “dose-response analysis of cell growth inhibition, in words” value in series [4] (SGC-7901, A875, HepG2, MARC145) was “significant concentration dependence”. For the same compound, the IC50 in series [5] (A875, Table 3, MTT) was determined as 8.54 ± 2.17 µM. Besides, the inhibition at 100 µM in [5] amounted to 93.7 ± 3.2%. The compound also displayed an IC50 in series [6] (SGC-7901, Table 3, MTT) of 6.39 ± 1.53 µM. In addition, in series [6], the inhibition at 100 µM amounted to 89.6 ± 5.4%.
Consider `O=C(Nc1ccc(C(F)(F)F)cc1)c1ccccc1Nc1cccc(C(F)(F)F)c1` [C7, N-(4-(Trifluoromethyl)phenyl)-2-((3-(trifluoromethyl)phenyl)amino)benzamide], for which the melting point was 102 to 103 °C. The inhibition at 100 µM in series [1] stood at 76.1 ± 3.5%. Further, in [2] (Table 3), the IC50 came out at 11.9 ± 1.37 µM. The compound also had an IC50 in series [3] (HepG2, Table 3, MTT) of 10.4 ± 2.17 µM. Also, the inhibition at 100 µM in series [3] is 88.5 ± 3.3%. Also, in series [4], the “cytotoxic effect / inhibition activity in words” value was “good cytotoxic effect; also recorded: higher inhibition activities compared to the control 5-FU” and the “inhibition activity in preliminary screening, in words” value is “good inhibition activity”. For the same compound, in [4] (SGC-7901, A875, HepG2, MARC145), the “dose-response analysis of cell growth inhibition, in words” value was “significant concentration dependence”. Besides, 13 ± 3.39 µM corresponded to half-maximal inhibition in series [5] (A875, Table 3, MTT) (IC50). Besides, the inhibition at 100 µM in series [5] was 92.6 ± 4.9%. This compound also showed an IC50 in series [6] (SGC-7901, Table 3, MTT) of 8.91 ± 2.15 µM. Besides, the inhibition at 100 µM in series [6] worked out at 87 ± 2.4%.
In turn, `O=C(Nc1ccccn1)c1ccccc1Nc1cccc(C(F)(F)F)c1` [C9, N-(Pyridin-2-yl)-2-((3-(trifluoromethyl)phenyl)amino)benzamide] gave a melting point of 65 to 66 °C. For the same compound, in [1], the inhibition at 100 µM was found to be 56.5 ± 3.3%. In addition, the IC50 in [2] (Table 3) is 64.7 ± 3.02 µM. Moreover, in series [3] (HepG2, Table 3, MTT), the midpoint of inhibition, the IC50, lay at 64.2 ± 3.89 µM. Besides, the inhibition at 100 µM in series [3] amounted to 75 ± 2.7%. This compound registered an IC50 in [5] (A875, Table 3, MTT) greater than 112 µM. Besides, the inhibition at 100 µM in series [5] came out at 30.3 ± 4.1%. In [6] (SGC-7901, Table 3, MTT), this compound gave an IC50 of 42 ± 7.95 µM. In addition, in series [6], the inhibition at 100 µM turned out to be 80.5 ± 2.5%.
`O=C(Nc1ccnc(Cl)c1)c1ccccc1Nc1cccc(C(F)(F)F)c1` [C10, N-(2-Chloropyridin-4-yl)-2-((3-(trifluoromethyl)phenyl)amino)benzamide] yielded a melting point of 97 to 98 °C. The inhibition at 100 µM in series [1] is 80.3 ± 4.6%. Moreover, inhibition in [2] (Table 3) was half-maximal at 22.7 ± 5.93 µM (IC50). Moreover, in series [3] (HepG2, Table 3, MTT), the IC50 came out at 21.9 ± 1.64 µM. For the same compound, in series [3], the inhibition at 100 µM worked out at 87.2 ± 4.1%. Further, in series [4], the “cytotoxic effect / inhibition activity in words” value is given as “higher inhibition activities compared to the control 5-FU” and the “inhibition activity in preliminary screening, in words” value is reported as “good inhibition activity”. Also, the IC50 in series [5] (A875, Table 3, MTT) turned out to be 26.3 ± 7.39 µM. Also, the inhibition at 100 µM in series [5] was found to be 90.1 ± 5.4%. Further, the IC50 in series [6] (SGC-7901, Table 3, MTT) was 8.31 ± 2.94 µM. The inhibition at 100 µM in [6] was 86.8 ± 3.2%.
